Experimental findings from ChEMBL document CHEMBL5634101, “Discovery of NLRP3 inhibitors using machine learning: Identification of a hit compound to treat NLRP3 activation-driven diseases” (Eur J Med Chem, 2023) are described below.

Usually half-life stands for the time needed for the level to fall by half in the phase considered.

Data set [1] in a line: Stability in human liver microsomes assessed as half-life at 1.5 uM measured upto 45 mins in presence of NADPH by LC-MS/MS analysis. It is filed as ADME, Microsome. In general terms: Liver microsomes are a subcellular fraction often used to study metabolism.
A short description of data set [2]: Stability in human liver microsomes assessed as intrinsic clearance at 1.5 uM measured upto 45 mins in presence of NADPH by LC-MS/MS analysis. The class given is ADME, Microsome. As to conditions: read-out: CLH.

For `O=C(c1ccc(F)cc1)C1CCN(CCn2c(=O)[nH]c3ccccc3c2=O)CC1` [KETANSERIN], in data set [1], the half-life at 1.5 µM is 1.68 h. Besides, the CLint scaled at 1.5 µM in data set [2] stood at 17.3 mL/min/kg.
